The assay relates to mRNA for UGCG in the mouse preputial gland. As to conditions: gonadectomized male mice, medium-term treatment, effect visible at 96 hours.

Description: The expression of the genes was analyzed on an Affymetrix station (microfluidic model; hybridization oven; scanner; computer) following the protocols provided by the company. Briefly, the total RNA isolated from the tissues is transcribed to cDNA. From the double-stranded cDNA, a cRNA labeled with biotin is synthesized using T7 polymerase and a precursor NTP conjugated to biotin. The cRNAs are then fragmented to small sized fragments. All the molecular biology steps are checked using the Agilent “Lab on a chip” system in order to confirm the good efficiencies of the enzymatic reactions. The Affymetrix chip is hybridized with the biotinylated cRNA, rinsed and then fluorescence labeled using a fluorophore conjugated to streptavidin. After washings, the chip is scanned and the results are calculated using the MAS5 software provided by Affymetrix. An expression value is obtained for each gene as well as the indication of the significance of the value obtained.
B. Male mice were gonadectomized and treated with the vehicle or DHT. The preputial glands were removed for a period ranging up to 4 days (androgenic treatment alone—observation of a short-term kinetics). The RNA was isolated and the expression of the genes was analyzed by the Affymetrix technique.

`C[C@]12CCC(=O)C[C@@H]1CC[C@@H]1[C@@H]2CC[C@]2(C)[C@@H](O)CC[C@@H]12` [DHT, Dihydrotestosterone]: the “mRNA for UGCG in the mouse preputial gland” value was “reduced”.
